Data: patent US20250367209A1 (SOUTHERN RESEARCH INSTITUTE, priority 2022, published 2025)
Read-outs that look alike come from different tables or passages of the source.

How the values were obtained:
[1] = Metabolic stability in mouse liver microsomes; type: in vitro ADME; conditions: for half-life: mouse, liver microsomes, Table 3, read-out: ADME t1/2 (min): MLMt1/2
[2] = Metabolic stability in human liver microsomes; type: in vitro ADME; conditions: Table 3, read-out: ADME t1/2 (min): HLMt1/2
From the text: (§1) A computational analysis of the top five hits was then completed to assess the physical attributes of the compounds emerging from the HTS. The target profile for drug-like properties included evaluation of molecular weight (MW), total polar surface area (PSA, the surface sum of all polar atoms on the molecule), solubility, metabolic stability, and partition coefficient (LogD). In general, MW<[…] and PSA <70 Å^2 were targeted, which generally allows for blood-brain barrier (BBB) permeability. Compounds with PSA >100 A^2 are generally poor at permeating cell membranes. Solubility was targeted at >10 μM at pH 7.4 and 40-60% of compound remaining after 60 minutes of incubation in mouse or human liver microsomes (an indicator of compound stability after first-pass metabolism). LogD is the log of the ratio of concentrations of a compound in two immiscible solvents at equilibrium. Values ranging from 2-4 were targeted, typical for CNS drugs. Based on these criteria, compound no. 55 was selected as the top hit for optimization. Compound no.

[3] = Solubility; type: physicochemical; conditions: for ADME Sol (μM): Table 3; for Solubility: Table 2
[4] = target: Tau-FynSH3 interaction (Homo sapiens (Human), UniProt P10636); test: Tau-FynSH3 AlphaScreen; type: binding
From the text: Human Fyn-SH3 domain with GST-tag at the N-terminus and a Strep-tag II ([…]) at the C-terminus (GST-Fyn-SH3-Strep) was cloned into pPR-IBA1 vector (IBA Lifesciences) (Cochran, et al. (2014) J. Biomol. Screen. 19, 1338-1349). Codon-optimized human 4R2N Tau for E. coli expression with a Strep-tag II at the C-terminus (His-Tau-Strep) was cloned into pET-28a(+) vector (Novagen). The constructs were transformed into E. coli BL-21(DE3) competent cells (Novagen). For GST-Fyn-SH3-Strep purification, a single colony was inoculated in Luria-Bertani (LB) broth at 37° C. overnight. 10 mL cell culture was added into 500 mL LB medium and cultured at 37° C. 0.5 mM Isopropyl β-D-1-thiogalactopyranoside (IPTG) was added into the culture when OD600 reached 0.7. Cells were further cultured at 25° C. for 4 hours and harvested. Cell pellet was resuspended in lysis buffer (20 mM Tris pH 7.9, 300 mM NaCl, 1 mM TCEP) with 1 tablet of EDTA-free protease inhibitors (ThermoFisher) and 1 mg/ml lysozyme. Cells were disrupted by sonication and debris was removed by centrifugation at 9500 rpm for 1 hour. Supernatant was loaded onto a glutathione-sepharose column (Cytiva). The column was washed in lysis buffer and protein eluted in lysis buffer containing 25 mM reduced glutathione. For His-Tau-Strep protein purification, cells were inoculated in LB broth medium and cultured at 37° C. overnight. A 10 mL overnight culture was added to 500 mL of auto-induction medium (Studier, F. W. (2005) Protein Expr Purif 41, 207-34) and cells were cultured at 37° C. for about 5 hours. The temperature was lowered to 18° C., and cells were cultured overnight. Cells were harvested and resuspended in lysis buffer with 20 mM imidazole, protease inhibitors, and lysozyme. Cells were disrupted by sonication and cell pellets were spun down at 9500 rpm for 1 hour. Supernatant was loaded onto Ni-NTA column (Cytiva) and the column was washed in lysis buffer with 20 mM imidazole. His-Tau-Strep protein was eluted in lysis buffer containing 400 mM imidazole. Both eluted GST-Fyn-SH3-Strep and His-Tau-Strep protein solutions were passed through G-25 desalting column (Cytiva) with lysis buffer and loaded onto high capacity Strep-Tactin column (IBA Lifesciences). The columns were washed in Buffer W (IBA Life sciences) and proteins were eluted in Buffer E (IBA life sciences). The eluted proteins were passed through G-25 desalting column again. Both GST-Fyn-Strep and His-Tau-Strep proteins were concentrated and diluted 1:1 in ethylene glycol as a cryoprotectant for storage at −80° C.
AlphaScreen was conducted with 10 µg/mL of glutathione donor beads (PerkinElmer, Waltham, MA) and nickel chelate acceptor beads (PerkinElmer) in 10 mM Bis-Tris (pH 7.0), 1 mM TCEP, 0.02% casein, and 0.1% Tween-20. Compounds were plated first followed by addition of one the proteins at 600 nM and incubation for 30 min. The second protein was added and incubated for 30 mn, then the beads were added simultaneously and the final mixture was incubated for 2 hours. Experiments were conducted in 384-well plates (6007290; PerkinElmer) and results were read on a PHERAstar plate reader (BMG Labtech, Cary, NC).
˜50,000 compounds from the Enamine and Southern Research libraries were screened to identify Tau-FynSH3 interaction inhibitors using an AlphaScreen assay (Cochran, et al. (2014) J. Biomol. Screen. 19, 1338-1349). Compounds that were >3 standard deviations above mean inhibition were selected, yielding 1,852 hits (FIG. 1A). […]. These 39 compounds were tested in a live-cell BRET assay to measure Tau-Fyn interaction in cells. […]. Screen. 19, 1338-1349).

[5] = Partition coefficient (LogD); type: physicochemical; conditions: Table 3; read-out: ADME LogD
From the text: as §1

[6] = test system: primary rat neurons; test: Modified MTT assay of Aβ toxicity in primary neurons; type: cell-based; conditions: compound 0.3, 3 or 15 μM, 90-minute pretreatment, 2.5 μM Aβ, 24 hours
From the text: Primary neuron cultures: All animal procedures were approved by the Institutional Animal Care and Use Committee at the University of Alabama at Birmingham (UAB). As before (Rush, et al. (2020) Neurobiol Dis 134, 104668; Voskobiynyk, et al. (2020) eLife 9, e57354), primary rat neurons were isolated from timed-pregnant Sprague-Dawley rats. Briefly, dams were euthanized with isoflurane anesthesia asphyxiation, and hippocampal tissue was isolated from E19 embryos in Hibernate E, then digested in papain for 10 minutes at 37° C. Neurons were triturated into a single cell suspension in Neurobasal supplemented with B-27, L-Glutamine, and 10% FBS, then plated in 96-well plates coated with PDL and laminin at 30,000 neurons per well in 200 uL medium or in 24-well coated plates with or without coverslips at 50,000 per well. Cultures were maintained at 37° C. with 5% CO2. Twenty-four hours after plating (DIV1), two 50% media changes with Neurobasal plus B-27 and L-Glutamine without FBS, and 5 μM cytosine β-D-arabinofuranoside was added to prevent glial proliferation. 50% media changes were performed at DIV7 and DIV14 with serum-free supplemented Neurobasal and experiments were started at DIV19.
Aβ oligomer preparation: As before (Rush, et al. (2020) Neurobiol Dis 134, 104668), lyophilized recombinant Aβ42 was dissolved in HFIP, dried overnight, then stored at −20° C. until oligomerization. To oligomerize, Aβ was dissolved in DMSO to 1 mM, then diluted to 100 µM in PBS, then sonicated and left on ice for 24 hours. Immediately prior to use, Aβ was centrifuged at 4° C. for 10 minutes at 14,000×g. Vehicle was prepared as well in identical fashion except lacking the Aβ peptide.
Aβ toxicity assays: The modified MTT and MAP2 assays were adapted from a recent study (Rush, et al. (2020) Neurobiol Dis 134, 104668). Briefly, at DIV19, media on the neurons was reduced to […], then compound was added to final concentration of 0 μM, 0.3 μM, 3 μM, or 15 μM with even amounts of DMSO. After 90-minute pretreatment with compound, 2.5 μM Aβ was added.
The modified MTT assay was performed 24 hours after Aβ application. 100 μM MTT was applied to neurons and incubated at 37° C. for one hour. Media was removed, then replaced with 15 μL 1.6% Tween20 in PBS and incubated on a shaker at 100 rpm for 5 minutes. The Tween was then removed and transferred to a 384-well clear-bottom plate and replaced with 15 μL isopropanol. Plates were again agitated for 5 minutes at RT, then isopropanol was transferred to the 384-well plate. Absorbance was then read at 590 nm on a plate reader, with 660 nm used as a reference. The ratio of Tween soluble MTT to isopropanol soluble (Tween-insoluble) MTT was calculated for each sample, then normalized to the vehicle group average.

[7] = target: Tau-Fyn interaction (Homo sapiens (Human), UniProt P10636); test: Tau-Fyn PLA screening in HEK-293 cells; type: cell-based; conditions: compound 15 μM, 24 hours
Protocol: Tau-Fyn PLA screening in HEK-293 cells: For Tau-Fyn PLA in HEK-293 cells, we used the same plasmids as before (Rush, et al. (2020) Neurobiol Dis 134, 104668): human 4R2N Tau with an N-terminal mKate2 tag in a pcDNA3.1 vector and human Fyn with an N-terminal Myc tag in a pCMV-Sport6 vector grown in Stellar E. coli. HEK-293 cells were plated on coverslips coated with PDL and laminin in a 24-well plate in DMEM supplemented with 10% FBS and 1% PenStrep. Cells were transfected with 125 ng of Tau-mKate2 and Fyn plasmids with 1.5 μL Fugene in plain DMEM. After 24 hours, compound was applied at 15 μM. Twenty-four hours after application, cells were fixed. PLA protocol was the same as above except for different primary antibodies (Tau5 1:500, Fyn3 1:250). After image acquisition, PLA density was calculated as PLA puncta (as above) divided by cell area to account for differences in confluency. Cell area was defined with ImageJ as % Area after theresholding Tau-mKate2 fluorescence because it filled the cells evenly. Puncta/cell area was then normalized to vehicle-treated slides from that experiment.

[8] = Table 3, read-out: Alpha screen IC50
[9] = Table 2, Tau-FynSH3 inhibitory activity in the AlphaScreen, read-out: IC50

Tau-FynSH3 interaction, sequence (P10636 other isoform, or with tags, fused parts or gaps): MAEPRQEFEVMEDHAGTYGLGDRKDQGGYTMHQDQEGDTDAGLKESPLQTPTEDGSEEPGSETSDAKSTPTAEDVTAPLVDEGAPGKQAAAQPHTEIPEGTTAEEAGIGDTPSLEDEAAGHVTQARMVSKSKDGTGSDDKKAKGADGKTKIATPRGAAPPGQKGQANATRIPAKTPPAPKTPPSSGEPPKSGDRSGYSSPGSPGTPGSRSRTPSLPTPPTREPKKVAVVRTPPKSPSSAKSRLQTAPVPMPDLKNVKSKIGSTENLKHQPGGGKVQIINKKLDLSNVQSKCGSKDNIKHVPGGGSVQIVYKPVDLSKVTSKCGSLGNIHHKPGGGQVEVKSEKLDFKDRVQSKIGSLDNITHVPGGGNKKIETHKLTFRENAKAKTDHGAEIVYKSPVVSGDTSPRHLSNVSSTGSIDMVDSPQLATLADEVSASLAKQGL
Tau-Fyn interaction, sequence (P10636 other isoform, or with tags, fused parts or gaps): as above

| half-life [1] [min] | half-life [2] [min] | ADME Sol (μM) [3] | IC50 [4, 8] [nM] | logD [5] | SMILES | also measured |
| --- | --- | --- | --- | --- | --- | --- |
| 22 | 78 | Sol = 69 μM | 1920 | 2 | O=C(CCN1C(=O)CSc2cc(F)ccc21)Nc1nnc(-c2ccccn2)[nH]1 [compound 7, 3-(7-FLUORO-3-Oxo-2H-BENZO[B][1,4]THIAZIN-4(3H)-YL)-N-(5-(PYRIDIN-2-YL)-4H-1,2,4-TRIAZOL-3-YL)PROPANAMIDE] | – |
| 20 | 53 | Sol = 81 μM | 2970 | 1.8 | O=C(CCN1C(=O)CSc2cc(F)c(F)cc21)Nc1nnc(-c2ccccn2)[nH]1 [compound 9, 3-(6,7-DIFLUORO-3-OXO-2H-BENZO[B][1,4]THIAZIN-4(3H)-YL)-N-(5-(PYRIDIN-2-YL)-4H-1,2,4-TRIAZOL-3-YL)PROPANAMIDE] | – |
| 53 | 238 | Sol = 65 μM | 1080 | 1.8 | O=C(CN1C(=O)CSc2ccc(F)cc21)Nc1nnc(-c2ccccn2)[nH]1 [compound 15, 2-(6-FLUORO-3-OXO-2H-BENZO[B][1,4]THIAZIN-4(3H)-YL)-N-(5-(PYRIDIN-2-YL)-4H-1,2,4-TRIAZOL-3-YL)ACETAMIDE] | – |
| 26 | 74 | Sol = 9 μM | 2580 | 2.3 | O=C(CN1C(=O)CSc2ccc(Cl)cc21)Nc1nnc(-c2ccccn2)[nH]1 [compound 16, 2-(6-CHLORO-3-OXO-2H-BENZO[B][1,4]THIAZIN-4(3H)-YL)-N-(5-(PYRIDIN-2-YL)-4H-1,2,4-TRIAZOL-3-YL)ACETAMIDE] | – |
| 40 | 152 | Sol = 59 μM | 3530 | 1.3 | O=C(CN1C(=O)CCSc2ccccc21)Nc1nnc(-c2ccccn2)[nH]1 [compound 18, 2-(4-OXO-3,4-DIHYDROBENZO[B][1,4]THIAZEPIN-5(21)-YL)-N-(5-(PYRIDIN-2-YL)-4H-1,2,4-TRIAZOL-3-YL)ACETAMIDE] | – |
| – | – | – | – | – | O=C(CN1CCSc2cc(Cl)ccc21)Nc1nnc(-c2ccccn2)[nH]1 [compound 58] | Solubility [3]: <1 µM |
| – | – | – | – | – | Cc1ccc2c(c1)SCCN2CC(=O)Nc1nnc(-c2ccccn2)[nH]1 [compound 60] | Solubility [3]: <1 µM |
| – | – | – | – | – | O=C(CN1CCSc2cc(C(=O)O)ccc21)Nc1nnc(-c2ccccn2)[nH]1 [compound 64] | MLM t1/2 ([1]; Table 2): >300 min; IC50 [4, 9]: < 200 nM |
| – | – | – | 3240 | – | O=C(CCN1C(=O)CSc2ccccc21)Nc1ncc(-c2ccccn2)[nH]1 [compound no. 5, 3-(3-Oxo-2H-BENZO[B][1,4]THIAZIN-4(3H)-YL)-N-(5-(PYRIDIN-2-YL)-1H-IMIDAZOL-2-YL)PROPANAMIDE] | – |
| – | – | – | – | – | O=C(CCN1C(=O)CSc2ccccc21)Nc1ccc(-n2cncn2)cc1 [compound no. 37, N-(4-(1H-1,2,4-TRIAZOL-1-YL)PHENYL)-3-(3-oxo-2,3-DIHYDRO-4H-BENZO[B][1,4]THIAZIN-4-YL)PROPANAMIDE] | Aβ toxicity / Aβ-induced membrane trafficking dysfunction, modified MTT assay [6]: did not ameliorate Aβ toxicity; AlphaScreen activity (in words) [4]: no observed AlphaScreen activity; IC50 [4, 9]: > 100000 nM; Alpha screen IC50 (μM) ([4]; Table 3): Inactive |
| – | – | – | – | – | O=C(CN1C(=O)CSc2ccccc21)Nc1nnc(-c2ccccn2)[nH]1 [compound no. 56] | improvement in activity in the Tau-FynSH3 AlphaScreen ([4]; compared to compound no. 55): five-fold improvement in activity; IC50 ([4]; read-out: IC50 in the Tau-FynSH3 AlphaScreen): 840 nM |
| – | – | – | – | – | O=C(CCN1CCSc2ccccc21)Nc1nnc(-c2ccccn2)[nH]1 [compound no. 57] | Aβ toxicity / Aβ-induced membrane trafficking dysfunction, modified MTT assay [6]: did not; Tau-Fyn interaction in cells, Tau-Fyn PLA in HEK-293 cells [7]: did not reduce Tau-Fyn interaction in cells |
